Source: ChEMBL document CHEMBL4482315, “In vivo imaging of sulfotransferases” (2013)
Calls of active or inactive are those of the source. The rule behind the calls is not given here.

Tested on: Rattus norvegicus
Experiment: In-vivo substrate activity at SULT1A in brain of Sprague-Dawley rat with renal hypertension a at 0.5 to 2 mCi dosed via bolus injection measured after 60 mins post dose by microPET imaging method
Type: functional, organism-based
Settings: tested as the 18F-labelled form

O=[N+]([O-])c1cc(O)ccc1F
Activity: Active
